In this assay the target is T1, human IL-23R (Homo sapiens, UniProt Q5VWK5).
T1 construct: UniProtKB—Q5VWK5, amino acids 22-629; secretion signal of the plasmid (Promega N1371); expressed in transfected cells
T1 sequence (Q5VWK5 22-629): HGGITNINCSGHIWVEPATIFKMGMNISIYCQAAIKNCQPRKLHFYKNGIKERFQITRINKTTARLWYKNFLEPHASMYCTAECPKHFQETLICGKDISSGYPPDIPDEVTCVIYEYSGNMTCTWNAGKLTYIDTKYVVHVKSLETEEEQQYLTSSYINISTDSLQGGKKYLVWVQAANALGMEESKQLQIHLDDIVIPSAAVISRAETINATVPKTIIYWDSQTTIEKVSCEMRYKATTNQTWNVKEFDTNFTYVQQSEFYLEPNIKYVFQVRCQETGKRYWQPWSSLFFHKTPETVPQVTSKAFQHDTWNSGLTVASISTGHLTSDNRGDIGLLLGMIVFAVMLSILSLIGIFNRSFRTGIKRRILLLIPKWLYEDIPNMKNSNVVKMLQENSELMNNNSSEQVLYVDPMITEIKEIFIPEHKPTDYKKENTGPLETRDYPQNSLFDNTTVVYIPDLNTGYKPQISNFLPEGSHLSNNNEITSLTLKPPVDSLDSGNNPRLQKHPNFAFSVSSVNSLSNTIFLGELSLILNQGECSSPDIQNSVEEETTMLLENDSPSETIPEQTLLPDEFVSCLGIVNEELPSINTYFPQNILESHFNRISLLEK
The assay can be described thus: Binding assay (NanoBRET displacement of fluorophore-labelled reference compound) for estimating binding affinity to human IL-23R. From the text: Binding Assay for Estimating Binding Affinity of Compounds to Human IL-23R
The compound binding affinity for IL-23R was estimated by the ability of compounds to displace a fluorophore-labelled reference compound from the human IL-23R. The assay principle relies on Bioluminescence Resonance Energy Transfer (BRET) between a fluorophore-labelled reference compound binding to the IL-23R part of a fusion protein consisting of the IL-23R fused to a Nanoluc luciferase enzyme (Nanoluc). The Nanoluc is placed in the N-terminus in close proximity to the binding domain of the ligand. Upon close proximity between the fluorophore of the fluorophore-labelled compound and the Nanoluc of the fusion protein, bioluminescence energy generated from conversion of a Nanoluc substrate, is transferred to the fluorophore resulting in an increase in BRET. In presence of an unlabelled compound, the unlabelled compound displaces the fluorophore-labelled peptide from its binding site resulting in a decrease in BRET. The concentration for which half of the fluorophore-labelled peptide is displaced by the unlabelled compound depends on the affinity of the compound for the IL-23R, and is termed the IC50 concentration. An estimated affinity (K) of the unlabelled compound for the IL-23R may be calculated using the Cheng-Prussov equation, which takes into account the concentration of the fluorophore-labelled compound used, and the affinity of the fluorophore-labelled compound for IL-23R.
The plasmid also contained a gene to confer resistance for the antibiotic hygromycin. A cell line stably expressing the Nluc-IL23R fusion protein was generated by transfection of HEK293 cells with the expression plasmid and selected with hygromycin for 3 weeks in Growth medium consisting of DMEM w/Glutamax-I containing, 10% V/V FBS, 1% V/V P/S, 1 mM Sodium Pyruvate, and 1×NEAA, and 0.3 mg/mL hygromycin. The remaining cells were propagated and considered a stable expressing Nluc-IL23R fusion protein pool clone.
Cells expressing the Nluc-IL23R fusion protein were expanded in Growth medium and membranes prepared by homogenization of a cell pellet from 18 T175 flasks (4° C. in subsequent steps). The cell pellet was lysed Tris 10 mM, 7.5, 1 mM EDTA and protease inhibitors (Complete, Roche) and homogenized using a 15 mL glass-dounce by 50 strokes. The homogenate was spun at spin @1500 rpm for 10 min, the supernatant transferred to SV-34 tubes and spun at 40000 g for 20 min at 4° C. to pellet the crude membranes. The supernatant was then removed, the pellet resuspended in 5 mL buffer containing 50 mM HEPES pH 7.4, 5 mM EGTA, and 5 mM MgCl2, and homogenized. Aliquots of the resuspended and homogenized membranes containing the Nluc-IL23R fusion protein were stored at −80° C. until use.
The plate was sealed with light impermeable plate seals, and incubated on a orbital shaker 400 rpm for 2 hours at room temperature. To determine the BRET ratio, the plate seal was removed and 25 μL of the Nanoluc substrate (Promega N1572) diluted 1:500 was added to each well and incubated for 1-2 minutes on an orbital shaker at 400 rpm. […] The BRET ratio was calculated as the fluorescence from the TAMRA/nanoluc bioluminescence. The IC50 for each compound was determined by computer-aided curve fitting using a 4-parameter logistic (4PL) non-linear model.

Setting [1] is: Table 3-1, read-out: Ki hIL-23R.
[2] abbreviates: Table 2-10b, read-out: Ki IL-23R.

pKi: −log10 of the molar value. Where two headings read alike, the source gives them in different places. *1 amine or outer side, *2 acyl side, *3 side chain or, on linkers, in order; H or OH if unused. Where a SMILES comes first, the peptide text is derived from it. Bridges are numbered along the chain shown (N, C = ends). [ ]: non-standard residue; d: D form. The star is where a group is joined. Phe(3,4-Me2) = Cc1ccc(C[C@H](N)C(=O)O)cc1C; 2Nal = N[C@@H](Cc1ccc2ccccc2c1)C(=O)O; AEF = NCCOc1ccc(C[C@H](N)C(=O)O)cc1; X20 = O=C(c1ccc(CCN[*:1])cc1)[*:2]; X1 = O=C(Cc1ccc(CN[*:1])cc1)[*:2]; 3Pal = N[C@@H](Cc1cccnc1)C(=O)O; X22 = NC(=O)C[C@@H](N*)c1cccnc1; αMeL = CC(C)C[C@](C)(N)C(=O)O; CH2COCH2 = O=C(C[*:1])C[*:2]; αMeV = CC(C)[C@](C)(N)C(=O)O; 3Amb = NCc1cccc(C(=O)O)c1; 4Amb = NCc1ccc(C(=O)O)cc1; Dab = NCC[C@H](N)C(=O)O

A word on the pKi: it is the negative decadic logarithm of the Ki, by convention in mol/L. Consider `CC[C@H](C)[C@@H]1NC(=O)Cc2ccc(cc2)CNC(=O)CC[C@@H](C(=O)NCC(=O)N[C@@H](Cc2cccnc2)C(N)=O)NC(=O)[C@](C)(C(C)C)NC(=O)[C@H](Cc2ccc(C)c(C)c2)NC(=O)[C@H](Cc2ccc(OCCN)cc2)NC(=O)[C@@H]2CCNC(=O)CC[C@H](NC1=O)C(=O)N[C@@H](Cc1c[nH]c3ccccc13)C(=O)N[C@@H](CCC(N)=O)C(=O)N2` [Compound 158, [4-Aminomethyl-phenylacetyl](1c)*IE(2c)WQ[Dab](2c)[Y(2-aminoethoxy)][F(3,4-Me)][2-Me-Val]E(1c)G[3-(3-Pyridyl)-Ala]-[NH2]] ([X1]IEWQ[Dab][AEF][Phe(3,4-Me2)][αMeV]EG[3Pal]-NH2; lactam 3-6, N-10), for which the pKi under setting [1] is 10.57. On the same count and under the same terms, the result for `CC(C)C[C@]1(C)NC(=O)[C@H](Cc2ccc3ccccc3c2)NC(=O)[C@H](Cc2ccc(OCCN)cc2)NC(=O)[C@@H]2CSCC(=O)CSC[C@H](NC(=O)[C@H](CO)NC(=O)c3cccc(c3)CNC(=O)CC[C@@H](C(=O)N[C@@H](CCCNC(=N)N)C(=O)N[C@H](CC(N)=O)c3cccnc3)NC1=O)C(=O)N[C@@H](Cc1c[nH]c3ccccc13)C(=O)N[C@@H](CCC(N)=O)C(=O)N2` [Compound 151, [(3-Aminomethyl)benzoyl](1c)*SC(2a)WQC(2a)][Y(2-aminoethoxy)][2-Nal][2-Me-Leu]E(1c)R[3-Amino-3-(3′-pyridyl)propionyl]-[NH2]] ([3Amb]SCWQC[AEF][2Nal][αMeL]ER-X22; linker 3-6 via CH2COCH2; lactam N-10) reads 9.17; that for `CC(C)C[C@]1(C)NC(=O)[C@H](Cc2ccc3ccccc3c2)NC(=O)[C@H](Cc2ccc(OCCN)cc2)NC(=O)[C@@H]2CSCC(=O)CSC[C@H](NC(=O)[C@H](CO)NC(=O)c3cccc(c3)CNC(=O)CC[C@@H](C(=O)N[C@@H](CCN)C(=O)N[C@@H](Cc3cccnc3)C(N)=O)NC1=O)C(=O)N[C@@H](Cc1c[nH]c3ccccc13)C(=O)N[C@@H](CCC(N)=O)C(=O)N2` [Compound 148, [(3-Aminomethyl)benzoyl](1c)*SC(2a)WQC(2a)[Y(2-aminoethoxy)][2-Nal][2-Me-Leu]E(1c)[Dab][3-(3-Pyridyl)-Ala]-[NH2]] ([3Amb]SCWQC[AEF][2Nal][αMeL]E[Dab][3Pal]-NH2; linker 3-6 via CH2COCH2; lactam N-10), 11.05. As for `CC(C)C[C@]1(C)NC(=O)[C@H](Cc2ccc3ccccc3c2)NC(=O)[C@H](Cc2ccc(OCCN)cc2)NC(=O)[C@@H]2CSCC(=O)CSC[C@H](NC(=O)[C@H](CO)NC(=O)c3ccc(cc3)CCNC(=O)CC[C@@H](C(=O)N[C@@H](CCCNC(=N)N)C(N)=O)NC1=O)C(=O)N[C@@H](Cc1c[nH]c3ccccc13)C(=O)N[C@@H](CCC(N)=O)C(=O)N2` [Compound 50, [4-(2-Aminoethyl)benzoyl](1c)*SC(2a)WQC(2a)[Y(2-aminoethoxy)][2-Nal][2-Me-Leu]E(1c)R-[NH2]] ([X20]SCWQC[AEF][2Nal][αMeL]ER-NH2; linker 3-6 via CH2COCH2; lactam N-10), the pKi under setting [2] was 8.29 and the pKi under setting [1] is 8.29. For `CC(C)C[C@]1(C)NC(=O)[C@H](Cc2ccc3ccccc3c2)NC(=O)[C@H](Cc2ccc(OCCN)cc2)NC(=O)[C@@H]2CSCC(=O)CSC[C@H](NC(=O)[C@H](CO)NC(=O)Cc3ccc(cc3)CNC(=O)CC[C@@H](C(=O)N[C@@H](CCCNC(=N)N)C(=O)N[C@@H](Cc3cccnc3)C(N)=O)NC1=O)C(=O)N[C@@H](Cc1c[nH]c3ccccc13)C(=O)N[C@@H](CCC(N)=O)C(=O)N2` [Compound 147, [4-Aminomethyl-phenylacetyl](1c)*SC(2a)WQC(2a)[Y(2-aminoethoxy)][2-Nal][2-Me-Leu]E(1c)R[3-(3-Pyridyl)-Ala]-[NH2]] ([X1]SCWQC[AEF][2Nal][αMeL]ER[3Pal]-NH2; linker 3-6 via CH2COCH2; lactam N-10), the pKi under setting [1] is 10.92. Same read-out and setting: the value for `CC(C)C[C@]1(C)NC(=O)[C@H](Cc2ccc3ccccc3c2)NC(=O)[C@H](Cc2ccc(OCCN)cc2)NC(=O)[C@@H]2CSCC(=O)CSC[C@H](NC(=O)[C@H](CO)NC(=O)Cc3ccc(cc3)CNC(=O)CC[C@@H](C(=O)N[C@H](CCC(N)=O)C(N)=O)NC1=O)C(=O)N[C@@H](Cc1c[nH]c3ccccc13)C(=O)N[C@@H](CCC(N)=O)C(=O)N2` [Compound 115, [4-Aminomethyl-phenylacetyl](1c)*SC(2a)WQC(2a)[Y(2-aminoethoxy)][2-Nal][2-Me-Leu]E(1c)[{d}Q]-[NH2]] ([X1]SCWQC[AEF][2Nal][αMeL]E[dQ]-NH2; linker 3-6 via CH2COCH2; lactam N-10) was 9.74. On to `CC(C)C[C@@H]1NC(=O)[C@H](Cc2c[nH]c3ccccc23)NC(=O)[C@H](Cc2c[nH]c3ccccc23)NC(=O)[C@@H]2CSSC[C@H](NC(=O)[C@H](CO)NC(=O)[C@@H](NC(=O)[C@@H](N)CC(=O)O)CSCC(=O)CSC[C@@H](C(=O)N[C@@H](CCCNC(=N)N)C(N)=O)NC1=O)C(=O)N[C@@H](Cc1c[nH]c3ccccc13)C(=O)N[C@@H](CCC(N)=O)C(=O)N2` [Compound 53, H-DC(1a)SC(2b)WQC(2b)WWLC(1a)R-[NH2]], for which the pKi is less than 6.00. Regarding `CC[C@H](C)[C@@H]1NC(=O)c2cccc(c2)CNC(=O)CC[C@@H](C(=O)N[C@@H](CCN)C(=O)N[C@@H](Cc2cccnc2)C(N)=O)NC(=O)[C@](C)(C(C)C)NC(=O)[C@H](Cc2ccc3ccccc3c2)NC(=O)[C@H](Cc2ccc(OCCN)cc2)NC(=O)[C@@H]2CCNC(=O)CC[C@H](NC1=O)C(=O)N[C@@H](Cc1c[nH]c3ccccc13)C(=O)N[C@@H](CCC(N)=O)C(=O)N2` [Compound 156, [(3-Aminomethyl)benzoyl](1c)*IE(2c)WQ[Dab](2c)[Y(2-aminoethoxy)][2-Nal][2-Me-Val]E(1c)[Dab][3-(3-Pyridyl)-Ala]-[NH2]] ([3Amb]IEWQ[Dab][AEF][2Nal][αMeV]E[Dab][3Pal]-NH2; lactam 3-6, N-10), the pKi under setting [1] is 10.80. `CC(C)C[C@]1(C)NC(=O)[C@H](Cc2ccc3ccccc3c2)NC(=O)[C@H](Cc2ccc(OCCN)cc2)NC(=O)[C@@H]2CSCC(=O)CSC[C@H](NC(=O)[C@H](CO)NC(=O)c3ccc(cc3)CNC(=O)CC[C@@H](C(=O)N[C@@H](CCCNC(=N)N)C(N)=O)NC1=O)C(=O)N[C@@H](Cc1c[nH]c3ccccc13)C(=O)N[C@@H](CCC(N)=O)C(=O)N2` [Compound 49, [(4-Aminomethyl)benzoyl](1c)*SC(2a)WQC(2a)[Y(2-aminoethoxy)][2-Nal][2-Me-Leu]E(1c)R-[NH2]] ([4Amb]SCWQC[AEF][2Nal][αMeL]ER-NH2; linker 3-6 via CH2COCH2; lactam N-10): the pKi under setting [2] was 8.94. For `CC(C)C[C@]1(C)NC(=O)[C@H](Cc2ccc3ccccc3c2)NC(=O)[C@H](Cc2ccc(OCCN)cc2)NC(=O)[C@@H]2CCNC(=O)CC[C@H](NC(=O)[C@H](CO)NC(=O)c3cccc(c3)CNC(=O)CC[C@@H](C(=O)N[C@@H](CCCNC(=N)N)C(N)=O)NC1=O)C(=O)N[C@@H](Cc1c[nH]c3ccccc13)C(=O)N[C@@H](CCC(N)=O)C(=O)N2` [Compound 67, [(3-Aminomethyl)benzoyl](1c)*SE(2c)WQ[Dab](2c)[Y(2-aminoethoxy)][2-Nal][2-Me-Leu]E(1c)R-[NH2]] ([3Amb]SEWQ[Dab][AEF][2Nal][αMeL]ER-NH2; lactam 3-6, N-10), the pKi under setting [1] is 9.12.

(Values after patent US20250154198A1, “PEPTIDE INHIBITORS OF INTERLEUKIN-23 RECEPTOR” (Zealand Pharma A/S, priority 2021, published 2025).)
